Results reported in patent US20070020193A1, “Dronabinol compositions and methods for using same” (priority 2005, published 2007).
Marks after values point to notes of the source that are not given here.

How the values were obtained:
healthy subjects = assay: Example 1: subjective drug ratings and ARCI; assay type: in vivo, human
Description: The subject responded to each of three questions on a scale of 0 to 100 with 0 meaning no effect/not at all and 100 meaning maximum/very much:
How much of a drug effect or high do you feel?
How much do you like the drug?
How much do you dislike the drug?
The ARCI is a true/false questionnaire developed to specifically measure the subjective effects of drugs which have diverse pharmacological actions. The […] (PCAG), morphine-benzedrine, and lysergic acid diethylamide subgroup scales were used to assess sedation, euphoria, and dysphoria. Questions from the marijuana subscale were also included.
Subjective drug ratings and cognitive measurement scores were presented as absolute values only with separate tables summarizing gender difference and age differences.

[1] = Example 2 multiple rising dose inhaled delta-9-THC study: plasma pharmacokinetics; conditions: for AUC(0-t) / AUC(0-inf) / Cmax / half-life / Tmax: human, plasma; for AUC(0-t): AUC(0-8)
Description: A randomized, double-blind, placebo-controlled, multiple rising dose safety, tolerability, pharmacokinetic and pharmacodynamic study to assess two dose levels of inhaled delta-9-THC was conducted. Dose levels were studied in ascending order. Two consecutive groups (n=9/group) of healthy subjects were studied (Groups I and II). […] There was a lapse of at least 10 days between the groups for interim safety and pharmacokinetic analysis. Two dose levels were studied in ascending order. […] Subjects in each treatment Group (I or II) received single and multiple doses of inhaled delta-9-THC according to the following schedule:
For both dose levels, the first and the last dose of study drug was given under fasted conditions. Subjects were confined to the study site from the evening of Day −2 (Day 1 is the day of administration of the first dose of study drug) until the 120-hour blood sample following the final dose of study drug, resulting in an 18-day confinement period for subjects in Group I and a 25-day confinement period for Group II. Between the completion of Group I and the start of Group II, an interim safety and pharmacokinetic analysis was performed. Based on the results of the interim analyses, the dose level for investigation in Group II was determined.
Two MDI dosage strengths were used corresponding to the same formulations used in Example 1: one delivering 0.3 mg delta-9-THC (or placebo) per actuation and one delivering 1.2 mg delta-9-THC (or placebo) per actuation. The MDI consisted of a pressurized (via propellants) container and a metered-dose valve. The propellants provided the necessary force to expel the drug, and also acted as a solvent and diluent. The canister unit was provided within a mouthpiece (oral adapter), to expel an exact amount of drug, in the proper particle size distribution, upon each actuation. Two basic formulations containing 0.3 and 1.2 mg of delta-9-THC per 50 μL were developed with propellant 1,1,1,2 tetrafluoroethane 134a (HFA 134a), and ethanol as solvent. The formulations were made in accordance with the composition used in Example 1.
Whole blood samples were collected according to the assessment flowchart in EDTA tubes through venepuncture or indwelling catheter. Samples were immediately placed on ice and subsequently centrifuged within 30 minutes at 1,500 g for 10 minutes. Plasma was transferred into a 5 ml screw cap polypropylene tube, stoppered and stored at below minus 20° C. until transfer to the analytical laboratory for analysis. […] The measurement ranges were 0.05-30 ng/ml for delta-9-THC, 0.04-30 ng/ml for 11-OH-THC, and 0.25-10 ng/ml for THC-COOH.
For Example 2: The statistical analysis encompassed an exploratory analysis of the single and multiple dose pharmacokinetics and dose proportionality of two dose levels of inhaled delta-9-THC in healthy subjects. Descriptive statistics included number of subjects, mean, standard deviation, coefficient of variation (%) and geometric mean for all pharmacokinetic parameters.
The exploratory analysis was performed on the logarithms of the dose-normalized pharmacokinetic parameters AUC(0-inf), AUC(0-t), AUC(0-τ) and Cmax. Dose proportionality was tested both at single dose and at multiple dose (steady state) by comparing the dose groups for all pharmacokinetic parameters by an analysis of variance with dose as fixed effect.
Dose proportionality was tested by the contrast between the dose groups. For this contrast on the logarithmic scale, p-values were given. After anti-logarithmic transformation, the resultant ratios of geometric means and 90% confidence intervals were given.
Accumulation was tested by comparing the steady state values for AUC(0-τ) with the single dose values for AUC(0-τ) by a mixed model analysis of variance with dose and day (with levels single dose and steady state) as fixed effects and subject within dose as random effect.

[2] = oral administration, first-pass metabolism; cited from earlier work
[3] = inhaled, 1.2 mg, Arithmetic Mean (SD), 1.2 mg m.d., Day 12, Group I
[4] = inhaled, 1.2 mg, Arithmetic Mean (SD), 1.2 mg s.d., Day 1
[5] = inhaled, 1.2 mg, Geometric Mean (Range), 1.2 mg s.d., Day 1
[6] = inhaled, 3.6 mg, Arithmetic Mean (SD), 3.6 mg m.d., Day 19, Group II
[7] = inhaled, 3.6 mg, Arithmetic Mean (SD), 3.6 mg s.d., Day 1
[8] = inhaled, 3.6 mg, Geometric Mean (Range), 3.6 mg s.d., Day 1

With `CCCCCc1cc(O)c2c(c1)OC(C)(C)[C@@H]1CCC(C)=C[C@@H]21` [delta-9-THC, delta-9-tetrahydrocannabinol] the “dose with maximum 'disliking'” value (healthy subjects; Group I) was 2.4 mg, the “dose with maximum psychoactivity ('feel the drug' scores) and highest mean 'liking' scores” value (healthy subjects; Group I) was 0.3 mg and the “dose with maximum 'disliking' scores and maximum 'feel the drug' scores” value (healthy subjects; Group II) was 7.2 mg. The “dose with maximum 'liking' scores” value (healthy subjects; Group II) was 3.6 mg, the “subjective drug ratings, three scales” value (healthy subjects; Group III, 3.6 mg) was “difference between placebo and 3.6 mg” and the “ARCI MBG, LSD and Amphetamine Scales” value (healthy subjects; in vivo) was “No significant results”. The “achievement of steady state” value ([1]; 1.2 mg delta-9-THC three times daily) was “apparently reached after six days of dosing”, the “accumulation during multiple dosing” value ([1]; 8-hours dosing interval) was “no statistically significant accumulation” and the “Ratio AUC(0-8) m.d./AUC(0-8) s.d. (Accumulation factor), Mean” value ([1]; Group I, 1.2 mg) was 0.85. For the same molecule, the “Ratio AUC(0-8) m.d./AUC(0-inf) s.d. (Linearity), Mean” value ([1]; Group I, 1.2 mg) was 0.79, the “Ratio AUC(0-8) m.d./AUC(0-8) s.d. (Accumulation factor), Mean” value ([1]; Group II, 3.6 mg) was 1.15 and the “Ratio AUC(0-8) m.d./AUC(0-inf) s.d. (Linearity), Mean” value ([1]; Group II, 3.6 mg) was 1.02. The “dose proportionality: geometric mean ratio (3.6 mg:1.2 mg) of dose-normalized AUC(0-8) (90% confidence interval)” value ([1]; Multiple dose) was 1.10 (0.55-2.18), the “dose proportionality: geometric mean ratio (3.6 mg:1.2 mg) of dose-normalized Cmax (90% confidence interval)” value ([1]; Multiple dose) was 1.81 (0.52-6.24) and the “dose proportionality: geometric mean ratio (3.6 mg:1.2 mg) of dose-normalized AUC(0-8) (90% confidence interval)” value ([1]; Single dose) was 0.77 (0.50-1.18)*. The “dose proportionality: geometric mean ratio (3.6 mg:1.2 mg) of dose-normalized AUC(0-inf) (90% confidence interval)” value ([1]; Single dose) was 0.79 (0.51-1.23), the “dose proportionality: geometric mean ratio (3.6 mg:1.2 mg) of dose-normalized AUC(0-t) (90% confidence interval)” value ([1]; Single dose) was 0.81 (0.52-1.25) and the “dose proportionality: geometric mean ratio (3.6 mg:1.2 mg) of dose-normalized Cmax (90% confidence interval)” value ([1]; Single dose) was 0.71 (0.38-1.37). For the same molecule, the “dose proportionality of pharmacokinetic parameters” value ([1]; after single or multiple dose administration) was “not found to deviate significantly”, the “plasma concentration-time curve, elimination profile” value ([1]; both dose levels) was “at least a bi-phasic elimination profile” and the systemic absorption ([1]; both dose levels, inhaled) was “rapid systemic absorption”. The AUC(0-t) [1, 3] was 5.74 ng·h/mL, the AUC(0-t) [1, 4] was 6.61 ng·h/mL and the AUC(0-t) ([1]; inhaled, 1.2 mg, Geometric Mean (Range), 1.2 mg m.d., Day 12, Group I) was 4.52 ng·h/mL. The AUC(0-t) [1, 5] was 6.1 ng·h/mL, the AUC(0-inf) [1, 4] was 7.14 ng·h/mL and the AUC(0-inf) [1, 5] was 6.55 ng·h/mL. The Cmax [1, 3] was 12.3 ng/mL, the Cmax ([1]; inhaled, 1.2 mg, Arithmetic Mean (SD), 1.2 mg s.d., Day 1, plasma) was 24 ng/mL and the Cmax ([1]; inhaled, 1.2 mg, Geometric Mean (Range), 1.2 mg m.d. (three times daily), Day 12, Group I) was 6.9 ng/mL. The Cmax ([1]; inhaled, 1.2 mg, Geometric Mean (Range), 1.2 mg s.d., Day 1, plasma) was 19.7 ng/mL, the half-life ([1]; inhaled, 1.2 mg, terminal elimination half-life, multiple dosing) was 24 h and the Tmax ([1]; inhaled, 1.2 mg, tmax, Arithmetic Mean (SD), 1.2 mg m.d., Day 12, Group I) was 3.6 min. It also gave a Tmax ([1]; inhaled, 1.2 mg, tmax, Arithmetic Mean (SD), 1.2 mg s.d., Day 1) of 2.4 min, a Tmax ([1]; inhaled, 1.2 mg, tmax, median (range), 1.2 mg m.d., Day 12, Group I) of 3.6 min and a Tmax ([1]; inhaled, 1.2 mg, tmax, median (range), 1.2 mg s.d., Day 1) of 1.8 min. It also gave a half-life ([1]; inhaled, 1.2 mg, t½, Arithmetic Mean (SD), 1.2 mg m.d., Day 12, Group I) of 29.1 h, a half-life ([1]; inhaled, 1.2 mg, t½, Arithmetic Mean (SD), 1.2 mg s.d., Day 1) of 4.02 h and a half-life ([1]; inhaled, 1.2 mg, t½, Geometric Mean (Range), 1.2 mg m.d., Day 12, Group I) of 25.3 h. It also gave a half-life ([1]; inhaled, 1.2 mg, t½, Geometric Mean (Range), 1.2 mg s.d., Day 1) of 3.39 h, an AUC(0-t) [1, 6] of 15.8 ng·h/mL and an AUC(0-t) [1, 7] of 14.7 ng·h/mL. For the same molecule, the AUC(0-t) ([1]; inhaled, 3.6 mg, Geometric Mean (Range), 3.6 mg m.d., Day 19, Group II) was 14.9 ng·h/mL, the AUC(0-t) [1, 8] was 14 ng·h/mL and the AUC(0-inf) [1, 7] was 16.3 ng·h/mL. For the same molecule, the AUC(0-inf) [1, 8] was 15.6 ng·h/mL, the Cmax [1, 6] was 40.4 ng/mL and the Cmax ([1]; inhaled, 3.6 mg, Arithmetic Mean (SD), 3.6 mg s.d., Day 1, plasma) was 44.7 ng/mL. It also gave a Cmax ([1]; inhaled, 3.6 mg, Geometric Mean (Range), 3.6 mg m.d. (three times daily), Day 19, Group II) of 37.4 ng/mL, a Cmax ([1]; inhaled, 3.6 mg, Geometric Mean (Range), 3.6 mg s.d., Day 1, plasma) of 42.5 ng/mL and a half-life ([1]; inhaled, 3.6 mg, Terminal elimination half-lives (summary estimate), summary, best estimated after multiple dosing) of roughly 93 h. The half-life ([1]; inhaled, 3.6 mg, terminal elimination half-life, multiple dosing) was 93 h, the Tmax ([1]; inhaled, 3.6 mg, tmax, Arithmetic Mean (SD), 3.6 mg m.d., Day 19, Group II) was 2.4 min and the Tmax ([1]; inhaled, 3.6 mg, tmax, Arithmetic Mean (SD), 3.6 mg s.d., Day 1) was 4.8 min. The Tmax ([1]; inhaled, 3.6 mg, tmax, median (range), 3.6 mg m.d., Day 19, Group II) was 1.8 min, the Tmax ([1]; inhaled, 3.6 mg, tmax, median (range), 3.6 mg s.d., Day 1) was 4.8 min and the half-life ([1]; inhaled, 3.6 mg, t½, Arithmetic Mean (SD), 3.6 mg m.d., Day 19, Group II) was 94.8 h. For the same molecule, the half-life ([1]; inhaled, 3.6 mg, t½, Arithmetic Mean (SD), 3.6 mg s.d., Day 1) was 6.41 h, the half-life ([1]; inhaled, 3.6 mg, t½, Geometric Mean (Range), 3.6 mg m.d., Day 19, Group II) was 92.9 h and the half-life ([1]; inhaled, 3.6 mg, t½, Geometric Mean (Range), 3.6 mg s.d., Day 1) was 6.01 h. For the same molecule, the Tmax ([1]; inhaled, Tmax range, both dose levels, after single and multiple dose administration) was 1.8 to 4.8 min, the “ratios of AUC(0-8) after multiple dosing versus AUC(0-inf) after single dose (linearity)” value ([1]; in vivo) was “did not deviate clearly or significantly from unity” and the “Cmax and AUC values versus dose” value ([1]; single and multiple dose administration, 1.2 and 3.6 mg) was “Dose-related increases”. The “part of an orally administered dose that reaches systemic circulation” value [2] was 10-20%.
